US10226514B2, “Methods and compositions for reducing blood glucose levels” (The Children's Medical Center Corporation, priority 2011, dated 2019)
“Also recorded” adds a separate entry of the source.

Legend:
[1] = test system: XBP1s; test: XBP1s protein levels in Ad-XBP1s-infected MEFs (western blot); format: cell-based, mouse
Method: (§1) MEF cells were from American Type Tissue Collection (ATCC). These cells were grown in Dulbecco's Modified Eagel Medium (DMEM) supplemented with 10% fetal bovine serum (FBS), 10 U/ml penicillin and 1 μg/ml streptomycin at 37° C. and 5% CO2. Fao cells were maintained in RPMI 1640 medium (Invitrogen) supplemented with 10% fetal bovine serum (FBS), 10 U/ml penicillin and 1 μg/ml streptomycin.
(§2) Adenovirus expressing XBP1s T48A, XBP1s S61A, XBP1s T48A/S61A and MKK6Glu were produced with ViraPower Adenoviral Expression System (Invitrogen) according to manufacturer's instruction. Briefly, pAD-XBP1s T48A, pAD-XBP1s S61A, pAd-XBP1s T48A/S61A and pAd-MKK6Glu were linearized by restriction endonuclease digestion with PacI and transfected to 293A cells by Lipofectamine. The media was changed with fresh media every other day until the cytopathic effect was observed. When cytopathic effect reached to 80%, cells were collected by centrifugation. The pellet was resuspended in PBS and subjected to freezing and thawing cycles at −80° C. and 37° C. for 4 times. The supernatant containing the virus was prepared by centrifugation at 4,000 rpm for 20 min at room temperature. Ad-XBP s and Ad-Cre were generated as described previously (Ozcan, L., et al. (2009) Cell metabolism 9:35-51). For infection, cells were incubated with adenovirus in reduced volume of medium containing 1% FBS and antibiotics. Cells were gently rocked every 15 min for 1 h to increase efficiency of infection, and then fresh medium were added and cells were incubated for additional 15 h or 23 h.
Cells were lysed in lysis buffer (25 mM Tris-HCl, pH 7.4; 10 mM NaF; 10 mM Na4P207; 2 mM Na3VO4; 1 mM EGTA; 1 mM EDTA; 1% NP-40; 10 μg/ml Leupeptin; 10 μg/ml Aprotinin; 1 mM PMSF and 20 nM Okadaic acid). After 20 min-rotation at 4° C., cell lysates were centrifuged at 13,200 rpm for 20 min at 4° C. Supernatants were collected and protein concentration was quantified by using Protein Assay Kit (Bio-Rad). The concentrations of protein were normalized with lysis buffer to have equivalent amounts of protein and volume. Protein was denatured by boiling at 100° C. for 5 min in Laemmli buffer. The lysates were cooled to room temperature before loading for western blot analysis.
Western blot analysis was performed as previously described (Ozcan, L., et al. (2009) Cell metabolism 9:35-51). Samples from cell lysates or tissue lysates were resolved by SDS-PAGE and then transferred to polyvinylidene fluoride (PVDF) membrane. After 1 h blocking at room temperature using 10% blocking reagent (Roche), membrane was incubated overnight with primary antibody in Tris-buffered saline solution/Tween (TBST) containing 10% blocking reagent at 4° C. After the incubation, membrane was washed three times in TBST and incubated with secondary antibody for 1 h at room temperature. After three-time washing in TBST, membrane was developed using a chemiluminescence assay system (Roche) and exposed to Kodak films. Relative protein levels were quantified by Image J program.

[2] = test system: XBP1s; test: XBP1s protein degradation after cycloheximide; format: cell-based, mouse; conditions: anisomycin 25 ng/ml two hours, then cycloheximide 10 μg/ml, vs vehicle
Method: MEF cells were infected with Ad-XBP1s. After 24 h post-infection, cells were treated with anisomycin at 25 ng/ml or vehicle (DMSO) for 2 h. Translation […] inhibitor cycloheximide (10 μg/ml, Sigma) was added to the medium. Cells were flash frozen in liquid nitrogen at various time points. Protein levels were determined via immunoblotting.

[3] = test system: XBP1s mRNA; test: XBP1s mRNA levels and stability (Q-PCR, actinomycin D); format: cell-based, mouse
Method: Total RNA was extracted from cells or animal tissues using Trizol reagent (Invitrogen) and transcribed into cDNA using cDNA synthesis kit (Bio-Rad). The gene expression analysis was performed with iQ5 Multicolor Real-Time PCR Detection System (Bio-Rad) with SYBR Green Supermix (Bio-Rad). The mRNA level was normalized to 18S as a house keeping gene. The primer sequences used were:
For mRNA stability determination, MEF cells were infected with Ad-XBP1s. Sixteen hour after the infection, cells were treated with anisomycin (25 ng/ml) or vehicle (DMSO) for 1 h. Actinomycin D (10 μg/ml, Sigma) was added to the medium. Cells were flash frozen in liquid nitrogen at various time points. mRNA levels were determined via Q-PCR.

[4] = test system: p38 MAPK; test: p38 MAPK phosphorylation in anisomycin-treated knock-out cells; format: cell-based
Excerpt: It is known that MAPK kinase kinase (MKK) 4 and 7 are upstream kinases responsible for JNK activation (Tournier, C., et al. (2001) Genes Dev 15:1419-1426; Brancho, D., et al. (2003) Genes Dev 17:1969-1978) and anisomycin or TNFα cannot activate JNK in MKK4 and 7 double knock out cells (MKK4,7^−/−) (Tournier, C., et al. (2001) Genes Dev 15:1419-1426; Schaeffer, H. J. & Weber, M. J. (1999) Mol Cell Biol 19:2435-2444). In order to determine whether XBP1s can be regulated by anisomycin treatment in MKK4,7^−/− cells, these cells, along with their controls, were treated with anisomycin after XBP is expression. […] Furthermore, the experiments were repeated in JNK1,2^−/− and MKK4,7^−/− cells with TNFα. […] Finally, an MKK7-JNK1 fusion protein, previously shown to be a specific activator of JNK (Lei, K., et al. (2002) Mol Cell Biol 22:4929-4942), was used to investigate whether activation of JNK alone can have effect on XBP1s.

[5] = test system: XBP1s; test: XBP1s levels in Ad-XBP1s-infected Fao cells; format: cell-based; conditions: Ad-XBP1s-infected Fao cells (rat hepatoma)
Method: as §1
as §2, with “Ad-XBP s and Ad-Cre were generated as described previously (Ozcan, L., et al. (2009) Cell metabolism 9:35-51). For infection, cells were incubated with adenovirus in reduced volume of medium containing 1% FBS and antibiotics. Cells were gently rocked every 15 min for 1 h to increase efficiency of infection, and then fresh medium were added and cells were incubated for additional 15 h or 23 h.” left out
Western blot analysis was performed as previously described (Ozcan, L., et al. (2009) Cell metabolism 9:35-51). […] Relative protein levels were quantified by Image J program.

COc1ccc(C[C@H]2NC[C@H](O)[C@H]2OC(C)=O)cc1 [anisomycin]
XBP1s protein levels ([1]; Ad-XBP1s-infected MEFs, increasing doses, two hours): robust increase in XBP1s protein levels
XBP1s protein levels ([1]; Ad-XBP1s-infected MK2−/− cells vs control cells): dramatically reduced
XBP1s levels ([1]; Ad-XBP1s-infected MKK3,6−/− cells): no increase in XBP1s levels
XBP1s levels ([1]; Ad-XBP1s-infected p38α−/− cells): lacked the ability to upregulate XBP1s levels
XBP1s protein levels ([1]; JNK1,2−/− cells): significant increase in XBP is protein
XBP1s levels ([1]; MKK4,7−/− cells): dramatically increased XBP1s levels
XBP1s proteins in Ad-LacZ-infected control cells ([1]; up to 25 ng/ml anisomycin): No upregulation of XBP1s proteins
degradation rate of XBP1s protein [2]: No differences in the degradation rate of XBP1s protein
enhanced stability of XBP1s mRNA ([3]; MK2−/− cells, anisomycin 25 ng/ml): completely lost
XBP1s mRNA stability ([3]; TTP−/− cells, anisomycin 25 ng/ml one hour, actinomycin D 10 μg/ml): capable of increasing XBP1s mRNA stability
XBP1s mRNA levels ([3]; XBP1s expressing control cells, one hour): dramatic increase in mRNA of XBP1s; also recorded: increased the mRNA levels of XBP1s in a dose dependent manner
p38 MAPK phosphorylation ([4]; JNK1,2−/− cells): marked increase in p38 MAPK phosphorylation
p38 MAPK activation ([4]; MKK4,7−/− cells): significantly increased
XBP1s levels [5]: dramatically upregulating their XBP1s levels
